# Data as given in patent publication US8993515B2, “Peptidomimetics comprising N-amino cyclic urea residues and uses thereof” (Valorisation-Recherche, Limited Partnership, priority 2012, dated 2015).
# Residues, ends and D or L forms follow the SMILES beside them.
# How the values were obtained:
# human TF-1 cells = test: IL-1β-induced thymocyte (TF-1) proliferation, CyQUANT NF dye; format: cell-based; settings: peptide 1 μM; human IL-1β 25 ng/mL; 48 h
# Description: Immune cell proliferation was assessed by DNA intercalation of CyQUANT NF® fluorescent dye (Invitrogen, Carlsbad, Calif., USA). Essentially, human TF-1 cells (CRL-2003, American Type Culture Collection) were cultured in complete RPMI 1640 (WISENT Inc., Montréal, Quebec, Canada) supplemented with human GM-CSF (2 ng/ml, PeptroTech, Rocky Hill, N.J., USA). Cells (passage 5 and at least 85% viable, as verified by trypan blue dying) were reincorporated into RPMI 1640 medium deprived of phenol red (Gibco Invitrogen®, Carlsbad, Calif., USA) and of growth factors [i.e. fetal bovine serum (FBS) and GM-CSF] for 18 h and split (5×10^3 cells in 200 μL/well) into 96-well non-adherent flat bottom culture plates (Sarstedt®, Nümbrecht, Germany). Following 15 min pre-incubation with peptide or peptidomimetic (1 μM), the cells were treated with human IL-1β (25 ng/mL, PeproTech®, Rocky Hill, N.J., USA) and re-incubated. After 48 h, the cells were centrifuged for 7 min at 300 g, reincorporated into Hank's Buffered Salt Solution (1×HBSS, 50 μL/well, Gibco Invitrogen®, Carlsbad, Calif., USA) and transferred into a 96-well polystyrene black plate (Corning Incorporated, Corning, N.Y., USA). An additional 50 μL solution made of CyQUANT NF® dye (component A, 1×) and CyQUANT NF™ delivery agent (component B, 1×) in 1×HBSS was added to the cells in each well, which were covered with aluminum foil and incubated for 45 min. Fluorescence intensity was measured using a microplate reader (Perkin Elmer Wallac Envision® 2104; Perkin Elmer®, California, USA) with excitation at 485 nm and emission detection at 530 nm (FITC 485 and FITC 531 filters, respectively). Hexaplicate experiments were repeated three times and results were analyzed by one-way analysis of variance (ANOVA) factoring for treatments, and data are presented as mean±standard error of the mean (SEM).
# [1] = test system: NF-κB activation in HEK Blue IL-33/IL-1β sensor cells; test: HEK Blue SEAP reporter gene assay of NF-κB activation; format: cell-based; settings: peptide 1 μM; human IL-1β 2.5 ng/mL; 24 h
# Description: Activation of the NF-κB pathway upon interaction with IL-1β (or IL-33) receptor complex at the membrane was assessed via HEK-Blue SEAP reporter gene assay (InvivoGen®, California, USA). Basically, HEK Blue IL-33/IL-1β sensor cells were cultured in growth medium made of complete Dulbecco's modified Eagle medium (DMEM; 4.5 g/L glucose, 2 mM L-glutamine, […], 10% fetal bovine serum, 50 U/mL penicillin, 50 μg/mL streptomycin; Gibco Invitrogen®, Ontario, Canada) supplemented with selection antibiotics (30 μg/mL Blasticidin®, 200 μg/mL HygroGold® and 100 μg/mL Zeocin®; InvivoGen, California, USA). Upon reaching almost 70% confluency, HEK Blue cells were reincorporated into complete DMEM medium and split (2.5×10^4 cells in 180 μL/well) into 96-well membrane-treated flat bottom culture plates (Plate #3595, Corning Life Sciences, Massachusetts, USA). Cells were pretreated with 10 μL of peptide or peptidomimetic (1 μM) for 15 min., after which 10 μL of human IL-1β (2.5 ng/mL, PeproTech®, Rocky Hill, N.J., USA) was added. Following 24 h of incubation, 40 μL of the cells supernatant was added to a UV-transparent 96-well plate (Plate #3635, Corning Life Sciences®, Massachusetts, USA) already filled with 160 μL of resuspended Quanti-Blue® dye (1×, InvivoGen, California, USA). The plate was covered and incubated for 20 min. The level of SEAP was measured by reading absorbance (or optical density, OD) at 620 nm using a multiplate reader equipped with a monochromator (Perkin Elmer Wallac Envision® 2104; Perkin Elmer®, California, USA). Hexaplicate results were normalized over complete DMEM background signal and analyzed by one-way analysis of variance (ANOVA) factoring for treatments, and data are presented as mean±standard error of the mean (SEM).
Compound,diminished IL-1β-induced proliferation (human TF-1 cells),inhibition of NF-κB activation (OD620) [1]
"CC(C)C[C@@H](NC(=O)[C@@H](CCC(=O)O)NC(=O)[C@@H](C(C)C)N1CCN(NC(=O)[C@@H](Cc2ccc(O)cc2)NC(=O)[C@H](N)CCCNC(=N)N)C1=O)C(=O)N[C@H](C)C(N)=O [[Nai^3]-101.10, D-Arg-D-Tyr-Nai-D-Val-D-Glu-D-Leu-D-Ala-NH2] (HELM PEPTIDE1{[dR].[dY].[CC(C)[C@H](C(=O)[*:2])N1CCN(N[*:1])C1=O].[dE].[dL].[dA].[am]}$$$$V2.0)",77%,65%
"D-Arg-D-Tyr-D-Thr-D-Val-DGlu-D-Leu-D-Ala-NH2 [101.10, reference compound]",15%,77%
Kineret: a competitive IL-1R antagonist,–,100%
